From patent publication US20150087627A1, “COMBINATION OF KINASE INHIBITORS AND USES THEREOF” (Intellikine LLC, priority 2011, published 2015)

Assays:
Format in all cases: biochemical
PI3K δ = target: T1, PI3K δ (Homo sapiens, UniProt O00329); assay: PI 3-Kinase (human) HTRF assay, PI3K δ; conditions: read-out: PI3K δ IC50
T1 construct: purchased Upstate / Millipore Corporation

PI3K β (p110β/p85α) = target: T2, PI3K β (p110β/p85α) (Homo sapiens, UniProt P42338); assay: PI 3-Kinase (human) HTRF assay, PI3K β; conditions: read-out: PI3K β IC50
T2 construct: purchased Upstate / Millipore Corporation
T2 sequence (P42338 whole entry): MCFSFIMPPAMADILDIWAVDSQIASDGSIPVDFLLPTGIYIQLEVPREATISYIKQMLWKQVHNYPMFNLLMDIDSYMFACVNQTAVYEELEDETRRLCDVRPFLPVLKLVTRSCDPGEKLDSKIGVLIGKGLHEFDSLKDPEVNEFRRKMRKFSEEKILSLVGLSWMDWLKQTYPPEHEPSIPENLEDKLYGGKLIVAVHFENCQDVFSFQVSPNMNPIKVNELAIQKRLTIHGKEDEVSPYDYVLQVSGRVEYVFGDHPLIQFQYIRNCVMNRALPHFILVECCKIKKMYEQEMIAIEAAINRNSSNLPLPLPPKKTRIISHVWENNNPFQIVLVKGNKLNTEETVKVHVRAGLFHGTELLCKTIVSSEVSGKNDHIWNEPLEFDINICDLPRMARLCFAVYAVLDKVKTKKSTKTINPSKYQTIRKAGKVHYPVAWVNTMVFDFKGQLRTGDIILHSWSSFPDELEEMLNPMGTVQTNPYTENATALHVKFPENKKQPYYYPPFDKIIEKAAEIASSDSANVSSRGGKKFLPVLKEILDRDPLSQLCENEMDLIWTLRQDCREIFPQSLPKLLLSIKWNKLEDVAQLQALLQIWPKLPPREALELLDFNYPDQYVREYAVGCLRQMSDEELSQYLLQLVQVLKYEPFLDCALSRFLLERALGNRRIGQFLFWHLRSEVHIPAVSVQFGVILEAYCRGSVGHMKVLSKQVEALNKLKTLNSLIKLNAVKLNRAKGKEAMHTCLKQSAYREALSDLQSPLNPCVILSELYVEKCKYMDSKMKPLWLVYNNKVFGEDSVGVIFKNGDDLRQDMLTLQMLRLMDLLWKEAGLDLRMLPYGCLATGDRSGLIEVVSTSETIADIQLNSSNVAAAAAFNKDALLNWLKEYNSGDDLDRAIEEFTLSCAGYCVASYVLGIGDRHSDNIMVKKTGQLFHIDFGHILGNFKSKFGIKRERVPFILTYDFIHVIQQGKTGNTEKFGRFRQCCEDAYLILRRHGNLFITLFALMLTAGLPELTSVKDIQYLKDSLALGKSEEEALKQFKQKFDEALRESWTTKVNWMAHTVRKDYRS
T2 sequence (P27986 whole entry partner): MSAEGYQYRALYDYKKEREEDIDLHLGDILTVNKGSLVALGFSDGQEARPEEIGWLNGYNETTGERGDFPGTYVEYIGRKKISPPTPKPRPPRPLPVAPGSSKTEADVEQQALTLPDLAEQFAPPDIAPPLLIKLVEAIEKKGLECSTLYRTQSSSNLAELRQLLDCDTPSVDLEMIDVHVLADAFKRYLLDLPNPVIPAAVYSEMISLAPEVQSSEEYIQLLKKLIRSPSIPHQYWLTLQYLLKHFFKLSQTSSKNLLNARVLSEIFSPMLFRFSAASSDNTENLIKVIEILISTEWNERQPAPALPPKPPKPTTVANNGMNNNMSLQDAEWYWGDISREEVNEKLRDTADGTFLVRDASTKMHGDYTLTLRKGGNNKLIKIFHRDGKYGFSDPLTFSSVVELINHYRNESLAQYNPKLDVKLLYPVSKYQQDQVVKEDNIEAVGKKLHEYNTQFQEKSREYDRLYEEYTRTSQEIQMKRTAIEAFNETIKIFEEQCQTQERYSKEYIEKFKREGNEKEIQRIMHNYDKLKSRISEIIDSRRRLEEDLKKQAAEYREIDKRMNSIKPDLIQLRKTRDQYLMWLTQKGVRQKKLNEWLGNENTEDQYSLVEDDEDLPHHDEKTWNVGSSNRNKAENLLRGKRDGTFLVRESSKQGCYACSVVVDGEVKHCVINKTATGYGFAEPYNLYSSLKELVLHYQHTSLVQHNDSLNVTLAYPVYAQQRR
Protocol: Briefly, the assay is a time resolved FRET assay that indirectly measures PIP3 product formed by the activity of a PI3-K. The kinase reaction is performed in a microtiter plate (e.g., a 384 well microtiter plate). The total reaction volume is approximately 20 ul per well. In the first step, each well receives 2 ul of test compound in 20% dimethylsulphoxide resulting in a 2% DMSO final concentration. […] The plate is sealed and incubated for 15 minutes at room temperature. […] The plate is sealed and incubated for 1 hour at room temperature. The reaction is stopped by adding 5 ul of Stop Solution per well and then 5 ul of Detection Mix is added per well. The plate is sealed, incubated for 1 hour at room temperature, and then read on an appropriate plate reader. Data is analyzed and IC50s are generated using GraphPad Prism 5.

PI3K γ (p110γ) = target: T3, PI3K γ (p110γ) (Homo sapiens, UniProt P48736); assay: PI 3-Kinase (human) HTRF assay, PI3K γ; conditions: read-out: PI3K γ IC50
T3 construct: purchased Upstate / Millipore Corporation
T3 sequence (P48736 whole entry): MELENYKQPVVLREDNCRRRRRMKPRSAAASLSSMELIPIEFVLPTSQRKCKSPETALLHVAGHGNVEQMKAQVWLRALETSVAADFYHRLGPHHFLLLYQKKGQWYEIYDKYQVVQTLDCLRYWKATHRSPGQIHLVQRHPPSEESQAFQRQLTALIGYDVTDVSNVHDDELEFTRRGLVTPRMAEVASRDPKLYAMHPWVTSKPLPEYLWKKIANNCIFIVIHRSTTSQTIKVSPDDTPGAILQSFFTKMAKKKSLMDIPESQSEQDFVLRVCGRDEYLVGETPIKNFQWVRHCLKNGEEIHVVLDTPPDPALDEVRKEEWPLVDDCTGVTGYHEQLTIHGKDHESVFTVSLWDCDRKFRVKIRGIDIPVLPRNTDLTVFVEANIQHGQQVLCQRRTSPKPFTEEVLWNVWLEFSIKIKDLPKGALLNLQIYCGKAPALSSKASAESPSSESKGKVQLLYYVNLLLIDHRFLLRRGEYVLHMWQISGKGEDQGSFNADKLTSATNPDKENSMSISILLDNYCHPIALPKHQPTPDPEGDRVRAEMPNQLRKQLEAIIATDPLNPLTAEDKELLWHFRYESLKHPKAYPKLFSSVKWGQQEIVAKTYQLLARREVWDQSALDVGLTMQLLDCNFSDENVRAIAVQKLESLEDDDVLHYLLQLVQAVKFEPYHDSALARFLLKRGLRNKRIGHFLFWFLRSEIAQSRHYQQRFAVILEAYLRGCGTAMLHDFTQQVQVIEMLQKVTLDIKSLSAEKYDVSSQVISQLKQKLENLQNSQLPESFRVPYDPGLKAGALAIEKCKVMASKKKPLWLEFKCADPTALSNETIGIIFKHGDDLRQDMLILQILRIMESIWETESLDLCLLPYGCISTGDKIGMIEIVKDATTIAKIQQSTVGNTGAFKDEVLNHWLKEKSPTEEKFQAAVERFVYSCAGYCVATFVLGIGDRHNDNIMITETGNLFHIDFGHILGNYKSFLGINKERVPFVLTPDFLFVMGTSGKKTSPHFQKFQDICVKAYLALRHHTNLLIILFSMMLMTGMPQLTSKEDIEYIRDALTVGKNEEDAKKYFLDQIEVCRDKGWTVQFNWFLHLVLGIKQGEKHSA

PI3K α (p110α/p85α) = target: T4, PI3K α (p110α/p85α) (Homo sapiens, UniProt P42336); assay: PI 3-Kinase (human) HTRF assay, PI3K α; conditions: read-out: PI3K α IC50
T4 construct: purchased Upstate / Millipore Corporation
T4 sequence (P42336 whole entry): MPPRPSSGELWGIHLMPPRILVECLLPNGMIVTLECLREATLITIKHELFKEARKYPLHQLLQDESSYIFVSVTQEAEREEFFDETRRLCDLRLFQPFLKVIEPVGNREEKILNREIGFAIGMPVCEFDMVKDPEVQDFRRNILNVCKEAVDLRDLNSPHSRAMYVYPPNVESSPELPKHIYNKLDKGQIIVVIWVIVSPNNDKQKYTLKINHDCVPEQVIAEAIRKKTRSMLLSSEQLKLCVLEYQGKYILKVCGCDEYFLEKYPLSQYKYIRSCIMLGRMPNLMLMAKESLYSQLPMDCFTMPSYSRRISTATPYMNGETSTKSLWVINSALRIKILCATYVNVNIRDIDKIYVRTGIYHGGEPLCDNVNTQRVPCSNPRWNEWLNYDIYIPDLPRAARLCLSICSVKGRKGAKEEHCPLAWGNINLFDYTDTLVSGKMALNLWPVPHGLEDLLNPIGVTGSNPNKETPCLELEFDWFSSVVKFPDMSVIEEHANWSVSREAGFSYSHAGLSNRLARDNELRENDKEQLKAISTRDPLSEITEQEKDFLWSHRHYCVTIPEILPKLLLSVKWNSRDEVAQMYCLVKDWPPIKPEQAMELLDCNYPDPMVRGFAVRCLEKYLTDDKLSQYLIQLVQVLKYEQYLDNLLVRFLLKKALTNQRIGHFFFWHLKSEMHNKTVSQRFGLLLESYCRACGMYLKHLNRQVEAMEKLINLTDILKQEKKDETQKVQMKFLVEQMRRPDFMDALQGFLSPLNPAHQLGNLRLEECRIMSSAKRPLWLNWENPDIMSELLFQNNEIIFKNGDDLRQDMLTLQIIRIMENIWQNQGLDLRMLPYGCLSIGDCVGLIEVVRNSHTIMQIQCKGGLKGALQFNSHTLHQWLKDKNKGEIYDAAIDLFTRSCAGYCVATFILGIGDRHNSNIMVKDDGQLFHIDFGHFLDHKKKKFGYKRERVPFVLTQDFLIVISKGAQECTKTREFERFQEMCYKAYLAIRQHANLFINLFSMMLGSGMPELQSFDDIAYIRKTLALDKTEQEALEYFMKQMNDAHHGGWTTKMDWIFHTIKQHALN
T4 sequence (P27986 whole entry partner): as the sequence (P27986 whole entry partner) above

T1 sequence (O00329 whole entry): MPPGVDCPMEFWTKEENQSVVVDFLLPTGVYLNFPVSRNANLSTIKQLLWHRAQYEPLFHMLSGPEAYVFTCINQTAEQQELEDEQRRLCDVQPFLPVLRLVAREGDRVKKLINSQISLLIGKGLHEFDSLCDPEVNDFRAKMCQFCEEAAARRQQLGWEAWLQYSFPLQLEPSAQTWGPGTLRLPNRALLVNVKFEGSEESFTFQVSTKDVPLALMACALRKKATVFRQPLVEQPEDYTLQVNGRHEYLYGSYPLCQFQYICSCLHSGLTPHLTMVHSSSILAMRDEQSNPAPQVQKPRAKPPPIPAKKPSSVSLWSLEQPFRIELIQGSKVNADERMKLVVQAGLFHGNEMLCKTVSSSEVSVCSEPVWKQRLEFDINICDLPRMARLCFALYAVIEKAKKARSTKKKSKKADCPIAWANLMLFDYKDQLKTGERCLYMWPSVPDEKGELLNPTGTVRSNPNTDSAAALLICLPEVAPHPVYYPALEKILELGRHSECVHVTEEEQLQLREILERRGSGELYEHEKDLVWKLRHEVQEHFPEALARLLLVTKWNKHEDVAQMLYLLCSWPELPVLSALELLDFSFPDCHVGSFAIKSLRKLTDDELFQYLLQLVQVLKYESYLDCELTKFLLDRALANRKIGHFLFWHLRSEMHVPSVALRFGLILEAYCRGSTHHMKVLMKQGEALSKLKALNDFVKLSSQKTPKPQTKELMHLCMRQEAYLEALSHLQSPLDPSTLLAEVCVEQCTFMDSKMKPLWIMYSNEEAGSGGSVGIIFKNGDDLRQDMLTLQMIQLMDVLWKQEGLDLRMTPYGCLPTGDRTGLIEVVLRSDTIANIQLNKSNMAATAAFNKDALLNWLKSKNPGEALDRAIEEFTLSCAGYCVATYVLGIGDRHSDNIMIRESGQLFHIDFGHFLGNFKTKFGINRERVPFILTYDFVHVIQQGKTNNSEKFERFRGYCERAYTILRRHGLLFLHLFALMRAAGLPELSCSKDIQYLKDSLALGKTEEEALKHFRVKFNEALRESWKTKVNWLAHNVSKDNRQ
T1 sequence (P27986 whole entry partner): as the sequence (P27986 whole entry partner) above

C[C@H]1CN(c2cnc3ccc(-c4ccc5sc(N)nc5c4)cc3n2)CCN1 [Compound 307]
IC50 (PI3K δ): > 10 µM | IC50 (PI3K β (p110β/p85α)): < 1 µM | IC50 (PI3K γ (p110γ)): > 10 µM | IC50 (PI3K α (p110α/p85α)): < 1 µM

C[C@H]1CN(c2cnc3ccc(-c4ccc5nc(N)oc5c4)cc3n2)CCN1 [Compound 309]
IC50 (PI3K δ): > 10 µM | IC50 (PI3K β (p110β/p85α)): < 1 µM | IC50 (PI3K γ (p110γ)): < 10 µM | IC50 (PI3K α (p110α/p85α)): < 1 µM

C[C@H]1CN(c2cnc3ccc(-c4cccc5nc(N)oc45)cc3n2)CCN1 [Compound 310]
IC50 (PI3K δ): > 10 µM | IC50 (PI3K β (p110β/p85α)): > 10 µM | IC50 (PI3K γ (p110γ)): > 10 µM | IC50 (PI3K α (p110α/p85α)): > 10 µM

Cc1nc(NC(=O)N2CCC[C@H]2C(N)=O)sc1-c1ccc2oc(N)nc2c1 [Compound 311]
IC50 (PI3K δ): > 10 µM | IC50 (PI3K β (p110β/p85α)): > 10 µM | IC50 (PI3K γ (p110γ)): > 10 µM | IC50 (PI3K α (p110α/p85α)): < 1 µM

CC(=O)Nc1nc(C)c(-c2ccc3oc(N)nc3c2)s1 [Compound 312]
IC50 (PI3K δ): < 1 µM | IC50 (PI3K β (p110β/p85α)): < 10 µM | IC50 (PI3K γ (p110γ)): < 0.1 µM | IC50 (PI3K α (p110α/p85α)): < 1 µM

Nc1nc2cc(-c3ccc4ncc(N5CC(N6CCCC6)C5)nc4c3)ccc2o1 [Compound 314]
IC50 (PI3K δ): < 10 µM | IC50 (PI3K β (p110β/p85α)): < 10 µM | IC50 (PI3K γ (p110γ)): < 10 µM | IC50 (PI3K α (p110α/p85α)): < 1 µM

Nc1nc2cc(-c3ccc4ncc(C(=O)N(CCO)CCO)n4c3)ccc2o1 [Compound 316]
IC50 (PI3K δ): > 10 µM | IC50 (PI3K β (p110β/p85α)): < 10 µM | IC50 (PI3K γ (p110γ)): < 10 µM | IC50 (PI3K α (p110α/p85α)): < 1 µM

Nc1nc2cc(-c3ccc4ncn(C(=O)N5CCOCC5)c4c3)ccc2o1 [Compound 317]
IC50 (PI3K δ): > 10 µM | IC50 (PI3K β (p110β/p85α)): > 10 µM | IC50 (PI3K γ (p110γ)): > 10 µM | IC50 (PI3K α (p110α/p85α)): > 10 µM

Nc1nc2cc(-c3ccc4ncc(N5CC(n6ccnc6)C5)nc4c3)ccc2o1 [Compound 319]
IC50 (PI3K δ): < 10 µM | IC50 (PI3K β (p110β/p85α)): < 1 µM | IC50 (PI3K γ (p110γ)): < 1 µM | IC50 (PI3K α (p110α/p85α)): < 0.1 µM

Nc1nc2cc(-c3ccc4ncc(N5CC(N6CCS(=O)(=O)CC6)C5)nc4c3)ccc2o1 [Compound 334]
IC50 (PI3K δ): < 10 µM | IC50 (PI3K β (p110β/p85α)): < 10 µM | IC50 (PI3K γ (p110γ)): < 10 µM | IC50 (PI3K α (p110α/p85α)): < 0.1 µM

Nc1nc2cc(-c3ccc4ncc(N5CCC(n6cccn6)CC5)nc4c3)ccc2o1 [Compound 337]
IC50 (PI3K δ): > 10 µM | IC50 (PI3K β (p110β/p85α)): > 10 µM | IC50 (PI3K γ (p110γ)): < 1 µM | IC50 (PI3K α (p110α/p85α)): < 0.1 µM

Cc1cn(C2CCN(c3cnc4ccc(-c5ccc6oc(N)nc6c5)cc4n3)CC2)cn1 [Compound 338]
IC50 (PI3K δ): < 10 µM | IC50 (PI3K β (p110β/p85α)): < 10 µM | IC50 (PI3K γ (p110γ)): < 10 µM | IC50 (PI3K α (p110α/p85α)): < 0.1 µM

Cc1cn(C2CN(c3cnc4ccc(-c5ccc6oc(N)nc6c5)cc4n3)C2)cn1 [Compound 339]
IC50 (PI3K δ): < 1 µM | IC50 (PI3K β (p110β/p85α)): < 1 µM | IC50 (PI3K γ (p110γ)): < 1 µM | IC50 (PI3K α (p110α/p85α)): < 0.1 µM

Nc1nc2cc(-c3ccc4ncc(C(=O)N5CC5)n4c3)ccc2o1 [Compound 340]
IC50 (PI3K δ): > 10 µM | IC50 (PI3K β (p110β/p85α)): > 10 µM | IC50 (PI3K γ (p110γ)): < 1 µM | IC50 (PI3K α (p110α/p85α)): < 1 µM

Nc1nc2cc(-c3ccc4ncc(N5CC(N6CCC(O)CC6)C5)nc4c3)ccc2o1 [Compound 341]
IC50 (PI3K δ): < 10 µM | IC50 (PI3K β (p110β/p85α)): > 10 µM | IC50 (PI3K γ (p110γ)): < 10 µM | IC50 (PI3K α (p110α/p85α)): < 1 µM

Cc1nccn1C1CCN(c2cnc3ccc(-c4ccc5oc(N)nc5c4)cc3n2)CC1 [Compound 344]
IC50 (PI3K δ): < 1 µM | IC50 (PI3K β (p110β/p85α)): < 10 µM | IC50 (PI3K γ (p110γ)): < 10 µM | IC50 (PI3K α (p110α/p85α)): < 0.1 µM

Nc1nc2cc(-c3ccn4ncc(C(=O)N5CCOCC5)c4c3)ccc2o1 [Compound 347]
IC50 (PI3K δ): > 10 µM | IC50 (PI3K β (p110β/p85α)): < 10 µM | IC50 (PI3K γ (p110γ)): < 1 µM | IC50 (PI3K α (p110α/p85α)): < 1 µM

Cc1cc2oc(N)nc2cc1-c1ccc2ncc(N3CCN[C@@H](C)C3)nc2c1 [Compound 351]
IC50 (PI3K δ): > 10 µM | IC50 (PI3K β (p110β/p85α)): < 1 µM | IC50 (PI3K γ (p110γ)): > 10 µM | IC50 (PI3K α (p110α/p85α)): < 10 µM

C[C@@H]1CN(C2CN(c3cnc4ccc(-c5ccc6oc(N)nc6c5)cc4n3)C2)CCN1 [Compound 355]
IC50 (PI3K δ): < 1 µM | IC50 (PI3K β (p110β/p85α)): < 10 µM | IC50 (PI3K γ (p110γ)): < 10 µM | IC50 (PI3K α (p110α/p85α)): < 0.1 µM

Nc1nc2cc(-c3ccn4ncc(-c5ccncc5)c4c3)ccc2o1 [Compound 356]
IC50 (PI3K δ): < 0.1 µM | IC50 (PI3K β (p110β/p85α)): < 0.1 µM | IC50 (PI3K γ (p110γ)): < 0.1 µM | IC50 (PI3K α (p110α/p85α)): < 0.1 µM

Nc1nc2cc(-c3ccc4ncc(C(=O)N5CCOCC5)n4c3)cc(Cl)c2o1 [Compound 359]
IC50 (PI3K δ): < 10 µM | IC50 (PI3K β (p110β/p85α)): < 1 µM | IC50 (PI3K γ (p110γ)): < 0.1 µM | IC50 (PI3K α (p110α/p85α)): < 0.1 µM

Nc1nc2cc(-c3ccc4ncc(C(=O)N5CCOCC5)n4c3)cc(F)c2o1 [Compound 360]
IC50 (PI3K δ): < 10 µM | IC50 (PI3K β (p110β/p85α)): < 1 µM | IC50 (PI3K γ (p110γ)): < 0.1 µM | IC50 (PI3K α (p110α/p85α)): < 0.1 µM

Nc1nc2cc(-c3ccc4ncc(N5CC(N6CCOCC6)C5)nc4c3)cc(F)c2o1 [Compound 361]
IC50 (PI3K δ): < 10 µM | IC50 (PI3K β (p110β/p85α)): < 1 µM | IC50 (PI3K γ (p110γ)): < 1 µM | IC50 (PI3K α (p110α/p85α)): < 0.1 µM

Cc1c(-c2ccc3ncc(N4CC(N5CCOCC5)C4)nc3c2)ccc2oc(N)nc12 [Compound 362]
IC50 (PI3K δ): > 10 µM | IC50 (PI3K β (p110β/p85α)): > 10 µM | IC50 (PI3K γ (p110γ)): > 10 µM | IC50 (PI3K α (p110α/p85α)): > 10 µM

C[C@H]1CN(c2cnc3ccc(-c4cccc5c(N)noc45)cc3n2)CCN1 [Compound 363]
IC50 (PI3K δ): > 10 µM | IC50 (PI3K β (p110β/p85α)): > 10 µM | IC50 (PI3K γ (p110γ)): > 10 µM | IC50 (PI3K α (p110α/p85α)): > 10 µM
